Results from article PMC3518039 (Journal of medicinal chemistry, 2012).

Experiments:
[1] = target: Mycobacterium tuberculosis LipY (triacylglycerol lipase) (Mycobacterium tuberculosis, UniProt I6Y2J4); format: biochemical
[2] = target: T1, LipY (Mycobacterium tuberculosis, UniProt I6Y2J4); format: binding
T1 sequence (I6Y2J4 1-437): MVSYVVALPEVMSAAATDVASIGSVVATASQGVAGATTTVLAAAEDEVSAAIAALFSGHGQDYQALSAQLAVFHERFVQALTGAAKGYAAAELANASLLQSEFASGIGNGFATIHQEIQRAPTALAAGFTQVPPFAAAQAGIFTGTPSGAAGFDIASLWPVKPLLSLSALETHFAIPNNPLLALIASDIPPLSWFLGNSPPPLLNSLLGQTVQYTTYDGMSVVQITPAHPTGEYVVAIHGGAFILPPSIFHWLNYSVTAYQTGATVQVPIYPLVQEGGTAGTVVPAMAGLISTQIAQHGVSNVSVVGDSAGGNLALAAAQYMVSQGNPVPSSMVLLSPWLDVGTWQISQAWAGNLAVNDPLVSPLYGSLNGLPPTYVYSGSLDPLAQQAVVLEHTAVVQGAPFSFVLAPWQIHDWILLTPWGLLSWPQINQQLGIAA

[3] = target: Mycobacterium tuberculosis Rv0183 (monoglyceride lipase) (Mycobacterium tuberculosis, UniProt O07427); format: biochemical
[4] = target: Fusarium solani Cutinase (Fusarium vanettenii, UniProt P00590); format: biochemical, Fusarium solani pisi
Fusarium solani Cutinase, sequence (P00590 17-230): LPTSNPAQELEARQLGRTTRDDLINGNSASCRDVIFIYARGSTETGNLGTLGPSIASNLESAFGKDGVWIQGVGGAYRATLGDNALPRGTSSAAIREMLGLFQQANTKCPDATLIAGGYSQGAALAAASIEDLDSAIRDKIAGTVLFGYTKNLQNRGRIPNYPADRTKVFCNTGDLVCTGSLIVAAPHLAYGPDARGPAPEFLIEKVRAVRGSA

Mycobacterium tuberculosis Rv0183 (monoglyceride lipase), sequence (O07427 whole entry, looked up): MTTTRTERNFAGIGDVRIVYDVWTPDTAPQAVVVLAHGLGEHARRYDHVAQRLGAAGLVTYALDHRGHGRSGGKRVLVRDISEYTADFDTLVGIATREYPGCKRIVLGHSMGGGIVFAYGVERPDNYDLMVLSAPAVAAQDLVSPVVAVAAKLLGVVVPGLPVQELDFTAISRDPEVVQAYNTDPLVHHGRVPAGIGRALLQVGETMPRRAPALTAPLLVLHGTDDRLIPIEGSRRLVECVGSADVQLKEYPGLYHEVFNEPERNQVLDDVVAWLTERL

CCCCCCCCCCCCCCCCOP1(=O)CCCC(C(=O)OC)=C(C)O1 (stereo not shown) [Compound 11, Methyl 7-methyl-2-(hexadecyloxy)-2,3,4,5-tetrahydro-1,2-oxaphosphepine-6-carboxylate 2-oxide]
half-inactivation time (t1/2), LipY [1]: 9.6 s
Mass modifications (inhibited minus native lipase), LipY [2]: +443.8 Da

CCCCCC1CCP(=O)(OC)OC(C)=C1C(=O)OC (racemic) [6(α), (±) Methyl 2-methoxy-7-methyl-5-pentyl-2,3,4,5-tetrahydro-1,2-oxaphosphepine-6-carboxylate 2-oxide]
DI (Diastereoselectivity Index between trans-(α) and cis-(β) isomers), Rv0183 [3]: 16.7%
xI50 (inhibitor molar excess leading to 50% lipase inhibition), LipY [1]: > 100
DI (Diastereoselectivity Index between trans-(α) and cis-(β) isomers), Cutinase [4]: 89.7%

CO[P@]1(=O)OC[C@H]2COC(=O)C2=C(C)O1 [Compound 1, Cyclophostin]
xI50 (inhibitor molar excess leading to 50% lipase inhibition), LipY [1]: > 100
half-inactivation time (t1/2), Cutinase [4]: 10.8 s
residual lipase activity (plateau), Cutinase [4]: around 6.0%

CCCCCC1CCP(=O)(OC)OC(C)=C1C(=O)OC (racemic) [6(β), (±) Methyl 2-methoxy-7-methyl-5-pentyl-2,3,4,5-tetrahydro-1,2-oxaphosphepine-6-carboxylate 2-oxide]
DI (Diastereoselectivity Index between trans-(α) and cis-(β) isomers), Rv0183 [3]: 16.7%
xI50 (inhibitor molar excess leading to 50% lipase inhibition), LipY [1]: > 100
DI (Diastereoselectivity Index between trans-(α) and cis-(β) isomers), Cutinase [4]: 89.7%

CCCCCCCCCCCCCCCCCCC1CCP(=O)(OC)OC(C)=C1C(=O)OC (racemic) [10(α), (±) Methyl 2-methoxy-7-methyl-5-octadecyl-2,3,4,5-tetrahydro-1,2-oxaphosphepine-6-carboxylate 2-oxide]
DI (Diastereoselectivity Index between trans-(α) and cis-(β) isomers), Rv0183 [3]: > 93.0%
DI (Diastereoselectivity Index between trans-(α) and cis-(β) isomers), LipY [1]: 81.3%
DI (Diastereoselectivity Index between trans-(α) and cis-(β) isomers), Cutinase [4]: 72.1%

CCCCCCCCCCCCC1CCP(=O)(OC)OC(C)=C1C(=O)OC (racemic) [8(α), (±) Methyl 5-dodecyl-2-methoxy-7-methyl-2,3,4,5-tetrahydro-1,2-oxaphosphepine-6-carboxylate 2-oxide]
DI (Diastereoselectivity Index between trans-(α) and cis-(β) isomers), Rv0183 [3]: 36.3%
DI (Diastereoselectivity Index between trans-(α) and cis-(β) isomers), LipY [1]: 28.0%
DI (Diastereoselectivity Index between trans-(α) and cis-(β) isomers), Cutinase [4]: 29.0%

CCCCCCCCCCCCCCCCCCC1CCP(=O)(OC)OC(C)=C1C(=O)OC (racemic) [10(β), (±) Methyl 2-methoxy-7-methyl-5-octadecyl-2,3,4,5-tetrahydro-1,2-oxaphosphepine-6-carboxylate 2-oxide]
DI (Diastereoselectivity Index between trans-(α) and cis-(β) isomers), Rv0183 [3]: > 93.0%
DI (Diastereoselectivity Index between trans-(α) and cis-(β) isomers), LipY [1]: 81.3%
DI (Diastereoselectivity Index between trans-(α) and cis-(β) isomers), Cutinase [4]: 72.1%

CCCCCCCCCCC1CCP(=O)(OC)OC(C)=C1C(=O)OC (racemic) [7(α), (±) Methyl 5-decyl-2-methoxy-7-methyl-2,3,4,5-tetrahydro-1,2-oxaphosphepine-6-carboxylate 2-oxide]
DI (Diastereoselectivity Index between trans-(α) and cis-(β) isomers), Rv0183 [3]: 51.9%
DI (Diastereoselectivity Index between trans-(α) and cis-(β) isomers), LipY [1]: 80.3%
DI (Diastereoselectivity Index between trans-(α) and cis-(β) isomers), Cutinase [4]: 76.2%

CCCCCCCCCCCCC1CCP(=O)(OC)OC(C)=C1C(=O)OC (racemic) [8(β), (±) Methyl 5-dodecyl-2-methoxy-7-methyl-2,3,4,5-tetrahydro-1,2-oxaphosphepine-6-carboxylate 2-oxide]
DI (Diastereoselectivity Index between trans-(α) and cis-(β) isomers), Rv0183 [3]: 36.3%
DI (Diastereoselectivity Index between trans-(α) and cis-(β) isomers), LipY [1]: 28.0%
DI (Diastereoselectivity Index between trans-(α) and cis-(β) isomers), Cutinase [4]: 29.0%

CCCCCCCCCCC1CCP(=O)(OC)OC(C)=C1C(=O)OC (racemic) [Compound 7(β), (±) Methyl 5-decyl-2-methoxy-7-methyl-2,3,4,5-tetrahydro-1,2-oxaphosphepine-6-carboxylate 2-oxide]
DI (Diastereoselectivity Index between trans-(α) and cis-(β) isomers), Rv0183 [3]: 51.9%
half-inactivation time (t1/2), Rv0183 [3]: 86.4 s
residual lipase activity (plateau), Rv0183 [3]: around 6.0%
DI (Diastereoselectivity Index between trans-(α) and cis-(β) isomers), LipY [1]: 80.3%
DI (Diastereoselectivity Index between trans-(α) and cis-(β) isomers), Cutinase [4]: 76.2%

CCCCCCCCCCCCCCCCC1CCP(=O)(OC)OC(C)=C1C(=O)OC (racemic) [9(β), (±) Methyl 5-hexadecyl-2-methoxy-7-methyl-2,3,4,5-tetrahydro-1,2-oxaphosphepine - 6-carboxylate 2-oxide]
DI (Diastereoselectivity Index between trans-(α) and cis-(β) isomers), Rv0183 [3]: > 97.0%
DI (Diastereoselectivity Index between trans-(α) and cis-(β) isomers), LipY [1]: 70.5%
DI (Diastereoselectivity Index between trans-(α) and cis-(β) isomers), Cutinase [4]: 27.2%

CCCCCCCCCCCCCCCCC1CCP(=O)(OC)OC(C)=C1C(=O)OC (racemic) [9(α), (±) Methyl 5-hexadecyl-2-methoxy-7-methyl-2,3,4,5-tetrahydro-1,2-oxaphosphepine - 6-carboxylate 2-oxide]
DI (Diastereoselectivity Index between trans-(α) and cis-(β) isomers), Rv0183 [3]: > 97.0%
DI (Diastereoselectivity Index between trans-(α) and cis-(β) isomers), LipY [1]: 70.5%
DI (Diastereoselectivity Index between trans-(α) and cis-(β) isomers), Cutinase [4]: 27.2%
